Values joined by “and” are separate entries in the source; they are usually repeats but may differ in a detail not shown here. Equal entries are not always repeated.
System: 817829-284-R-J1-PDC multi-cell spheroid viability
Assay: Anticancer human tumor 817829-284-R-J1-PDC patient-derived colon adenocarcinoma cell line growth inhibition [PI3K]
Details: for viability, T/C: stronger effect = lower value
Summary of the method: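 Agents were dosed from a top concentration near clinical Cmax (otherwise 10 microM) in half-log decrements, alone or combined with PI3K inhibitors. The spheroids contain tumor cells plus endothelial (HUVEC) and MSC stroma; viability is measured.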

[1] = curve of first compound, second compound 0.00316 µM
[2] = curve of first compound, second compound 0.01 µM
[3] = curve of first compound, second compound 0.0316 µM
[4] = curve of first compound, second compound 0.1 µM
[5] = curve of first compound, second compound 0.316 µM
[6] = curve of first compound, second compound 1 µM
[7] = second compound 0.0316 µM, first compound 0.0316 µM
[8] = second compound 0.0316 µM, first compound 0.1 µM
[9] = second compound 0.0316 µM, first compound 0.316 µM
[10] = second compound 0.0316 µM, first compound 1 µM
[11] = second compound 0.0316 µM, first compound 3.16 µM
[12] = second compound 0.0316 µM, first compound 10 µM
[13] = second compound 0.1 µM, first compound 0.0316 µM
[14] = second compound 0.1 µM, first compound 0.1 µM
[15] = second compound 0.1 µM, first compound 0.316 µM
[16] = second compound 0.1 µM, first compound 1 µM
[17] = second compound 0.1 µM, first compound 3.16 µM
[18] = second compound 0.1 µM, first compound 10 µM
[19] = second compound 0.316 µM, first compound 0.0316 µM
[20] = second compound 0.316 µM, first compound 0.1 µM
[21] = second compound 0.316 µM, first compound 0.316 µM
[22] = second compound 0.316 µM, first compound 1 µM
[23] = second compound 0.316 µM, first compound 3.16 µM
[24] = second compound 0.316 µM, first compound 10 µM
[25] = second compound 1 µM, first compound 0.0316 µM
[26] = second compound 1 µM, first compound 0.1 µM
[27] = second compound 1 µM, first compound 0.316 µM
[28] = second compound 1 µM, first compound 1 µM
[29] = second compound 1 µM, first compound 3.16 µM
[30] = second compound 1 µM, first compound 10 µM
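Further: spheroids exposed to agents for seven days before readout.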
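Wherever viability, T/C is given: percent of vehicle DMSO control viability which is 100%.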

In the case of `CC(Cn1ccc(-c2ccc(C#N)c(Cl)c2)n1)NC(=O)c1cc(C(C)O)[nH]n1` (centres undefined) + COc1c(OCCCN2CCOCC2)ccc2c3n(c(=NC(=O)c4cnc(N)nc4)nc12)CCN3, the IC50 [1] is reported as over 10 µM, the IC50 [2] is reported as 6.45 µM and the IC50 [3] is reported as 5.82 µM. For the same molecule, the IC50 [4] was under 0.0316 µM, the IC50 [5] was under 0.0316 µM and the IC50 [6] was under 0.0316 µM. It also gave a viability, T/C (second compound 0.00316 µM, first compound 0.0316 µM) of 70.6%, a viability, T/C (second compound 0.00316 µM, first compound 0.1 µM) of 101% and a viability, T/C (second compound 0.00316 µM, first compound 0.316 µM) of 101%. The viability, T/C (second compound 0.00316 µM, first compound 1 µM) was 97.5%, the viability, T/C (second compound 0.00316 µM, first compound 3.16 µM) was 64.5% and the viability, T/C (second compound 0.00316 µM, first compound 10 µM) was 73.9%. The viability, T/C (second compound 0.01 µM, first compound 0.0316 µM) was 59.5%, the viability, T/C (second compound 0.01 µM, first compound 0.1 µM) was 87.1% and the viability, T/C (second compound 0.01 µM, first compound 0.316 µM) was 98.8%. It also gave a viability, T/C (second compound 0.01 µM, first compound 1 µM) of 57.1%, a viability, T/C (second compound 0.01 µM, first compound 3.16 µM) of 71.1% and a viability, T/C (second compound 0.01 µM, first compound 10 µM) of 39.4%. The viability, T/C [7] was 50.8%, the viability, T/C [8] was 61.7% and the viability, T/C [9] was 61.4%. The viability, T/C [10] was 67.5%, the viability, T/C [11] was 54.6% and the viability, T/C [12] was 36.4%. The viability, T/C [13] was 48.2%, the viability, T/C [14] was 30.8% and the viability, T/C [15] was 30.2%. It also gave a viability, T/C [16] of 38.1%, a viability, T/C [17] of 33.2% and a viability, T/C [18] of 26.8%. It also gave a viability, T/C [19] of 20.2%, a viability, T/C [20] of 21.3% and a viability, T/C [21] of 23.6%. For the same molecule, the viability, T/C [22] was 20.5%, the viability, T/C [23] was 24.4% and the viability, T/C [24] was 20.8%. For the same molecule, the viability, T/C [25] was 12.9%, the viability, T/C [26] was 7.86% and the viability, T/C [27] was 10.6%. It also gave a viability, T/C [28] of 9.64%, a viability, T/C [29] of 9.96% and a viability, T/C [30] of 10.4%.

`CC(C)NCC(C(=O)N1CCN(c2ncnc3c2C(C)CC3O)CC1)c1ccc(Cl)cc1` (centres undefined) + Cc1nc(NC(=O)N2CCCC2C(N)=O)sc1-c1ccnc(C(C)(C)C(F)(F)F)c1 showed an IC50 [3] of 0.249 µM, an IC50 [4] of 0.193 µM and an IC50 [5] of 0.203 µM. The IC50 [6] was 0.165 µM, the IC50 (curve of first compound, second compound 3.16 µM) was 0.0692 µM and the IC50 (curve of first compound, second compound 10 µM) was 0.0388 µM. It also gave a viability, T/C [7] of 80.1%, a viability, T/C [8] of 62.1% and a viability, T/C [9] of 51.1%. The viability, T/C [10] was 21.8%, the viability, T/C [11] was 19.6% and the viability, T/C [12] was 13.5%. It also gave a viability, T/C [13] of 82.5%, a viability, T/C [14] of 72.9% and a viability, T/C [15] of 32.4%. The viability, T/C [16] was 21.5%, the viability, T/C [17] was 19.4% and the viability, T/C [18] was 13.1%. It also gave a viability, T/C [19] of 55.5%, a viability, T/C [20] of 107% and a viability, T/C [21] of 30.5%. It also gave a viability, T/C [22] of 24.4%, a viability, T/C [23] of 17.3% and a viability, T/C [24] of 11%. For the same molecule, the viability, T/C [25] was 69.3%, the viability, T/C [26] was 66.3% and the viability, T/C [27] was 29.6%. It also gave a viability, T/C [28] of 23%, a viability, T/C [29] of 16.6% and a viability, T/C [30] of 8.39%. It also gave a viability, T/C (second compound 3.16 µM, first compound 0.0316 µM) of 69.3%, a viability, T/C (second compound 3.16 µM, first compound 0.1 µM) of 40.2% and a viability, T/C (second compound 3.16 µM, first compound 0.316 µM) of 23.9%. For the same molecule, the viability, T/C (second compound 3.16 µM, first compound 1 µM) was 19.2%, the viability, T/C (second compound 3.16 µM, first compound 3.16 µM) was 15.3% and the viability, T/C (second compound 3.16 µM, first compound 10 µM) was 6.49%. The viability, T/C (second compound 10 µM, first compound 0.0316 µM) was 52.8%, the viability, T/C (second compound 10 µM, first compound 0.1 µM) was 39.5% and the viability, T/C (second compound 10 µM, first compound 0.316 µM) was 29%. It also gave a viability, T/C (second compound 10 µM, first compound 1 µM) of 24.6%, a viability, T/C (second compound 10 µM, first compound 3.16 µM) of 12.5% and a viability, T/C (second compound 10 µM, first compound 10 µM) of 6.18%.

With `Cn1ncnc1[C@H]1c2n[nH]c(=O)c3cc(F)cc(c23)N[C@@H]1c1ccc(F)cc1` the viability, T/C (compound 0.000316 µM) was 113% and 70.3%, the viability, T/C (compound 0.001 µM) was 106% and 90.1% and the viability, T/C (compound 0.00316 µM) was 83.9% and 67%. The viability, T/C (compound 0.01 µM) was 75.3%, the viability, T/C (compound 0.0316 µM) was 55.6% and 55% and the viability, T/C (compound 0.1 µM) was 41.3% and 46.6%. The IC50 (curve of compound) was 0.0514 µM and 0.0628 µM.

`Cn1cnc2c(F)c(Nc3ccc(Br)cc3Cl)c(C(=O)NOCCO)cc21` + COc1c(OCCCN2CCOCC2)ccc2c3n(c(=NC(=O)c4cnc(N)nc4)nc12)CCN3 showed an IC50 [1] of 0.487 µM, an IC50 [2] of 0.0827 µM and an IC50 [3] of 0.0801 µM. It also gave an IC50 [4] of under 0.00949 µM, an IC50 [5] of under 0.00949 µM and an IC50 [6] of under 0.00949 µM. It also gave a viability, T/C (second compound 0.00316 µM, first compound 0.00949 µM) of 63.7%, a viability, T/C (second compound 0.00316 µM, first compound 0.03 µM) of 43.5% and a viability, T/C (second compound 0.00316 µM, first compound 0.0949 µM) of 70.4%. For the same molecule, the viability, T/C (second compound 0.00316 µM, first compound 0.3 µM) was 69%, the viability, T/C (second compound 0.00316 µM, first compound 0.949 µM) was 34% and the viability, T/C (second compound 0.00316 µM, first compound 3 µM) was 32.1%. It also gave a viability, T/C (second compound 0.01 µM, first compound 0.00949 µM) of 62.3%, a viability, T/C (second compound 0.01 µM, first compound 0.03 µM) of 72.2% and a viability, T/C (second compound 0.01 µM, first compound 0.0949 µM) of 35.5%. For the same molecule, the viability, T/C (second compound 0.01 µM, first compound 0.3 µM) was 43.7%, the viability, T/C (second compound 0.01 µM, first compound 0.949 µM) was 32.7% and the viability, T/C (second compound 0.01 µM, first compound 3 µM) was 22.9%. For the same molecule, the viability, T/C (second compound 0.0316 µM, first compound 0.00949 µM) was 66.5%, the viability, T/C (second compound 0.0316 µM, first compound 0.03 µM) was 50.9% and the viability, T/C (second compound 0.0316 µM, first compound 0.0949 µM) was 56%. It also gave a viability, T/C (second compound 0.0316 µM, first compound 0.3 µM) of 39.5%, a viability, T/C (second compound 0.0316 µM, first compound 0.949 µM) of 25.8% and a viability, T/C (second compound 0.0316 µM, first compound 3 µM) of 18%. It also gave a viability, T/C (second compound 0.1 µM, first compound 0.00949 µM) of 48%, a viability, T/C (second compound 0.1 µM, first compound 0.03 µM) of 27.9% and a viability, T/C (second compound 0.1 µM, first compound 0.0949 µM) of 39.6%. The viability, T/C (second compound 0.1 µM, first compound 0.3 µM) was 29.3%, the viability, T/C (second compound 0.1 µM, first compound 0.949 µM) was 24.4% and the viability, T/C (second compound 0.1 µM, first compound 3 µM) was 29.3%. For the same molecule, the viability, T/C (second compound 0.316 µM, first compound 0.00949 µM) was 19.6%, the viability, T/C (second compound 0.316 µM, first compound 0.03 µM) was 14.8% and the viability, T/C (second compound 0.316 µM, first compound 0.0949 µM) was 16.3%. The viability, T/C (second compound 0.316 µM, first compound 0.3 µM) was 11.3%, the viability, T/C (second compound 0.316 µM, first compound 0.949 µM) was 11.7% and the viability, T/C (second compound 0.316 µM, first compound 3 µM) was 6.47%. For the same molecule, the viability, T/C (second compound 1 µM, first compound 0.00949 µM) was 15.4%, the viability, T/C (second compound 1 µM, first compound 0.03 µM) was 7.31% and the viability, T/C (second compound 1 µM, first compound 0.0949 µM) was 5.89%. It also gave a viability, T/C (second compound 1 µM, first compound 0.3 µM) of 4.21%, a viability, T/C (second compound 1 µM, first compound 0.949 µM) of 4.29% and a viability, T/C (second compound 1 µM, first compound 3 µM) of 1.75%.

With `CC1(C)CCC(CN2CCN(c3ccc(C(=O)NS(=O)(=O)c4ccc(NCC5CCOCC5)c([N+](=O)[O-])c4)c(Oc4cnc5[nH]ccc5c4)c3)CC2)=C(c2ccc(Cl)cc2)C1` the viability, T/C (compound 0.0316 µM) was 66.2% and 63.1% and 99.8%, the viability, T/C (compound 0.1 µM) was 60.4% and 90.3% and 105% and the viability, T/C (compound 0.316 µM) was 60.5% and 85.7% and 66.8%. The viability, T/C (compound 1 µM) was 84.6% and 95.4% and 97.1%, the viability, T/C (compound 3.16 µM) was 98.1% and 98.5% and 56.7% and the IC50 (curve of compound) was > 10 µM and 5.63 µM and 3.67 µM.
